Patent US20240083857A1, “2-Methyl-Quinazolines” (Bayer Pharma Aktiengesellschaft, priority 2017, published 2024)
pIC50: −log10 of the molar value. Like-named read-outs stand apart in the source and are kept apart here.

How the values were obtained:
[1] = target: Epidermal Growth Factor Receptor (EGFR) (Homo sapiens (Human), UniProt P00533); assay: EGFR kinase assay (TR-FRET); format: biochemical; details: for pIC50: E-notation values, unit inferred
Description: EGFR inhibitory activity of compounds of the present invention was quantified employing the TR-FRET based EGFR assay as described in the following paragraphs.
Epidermal Growth Factor Receptor (EGFR) affinity purified from human carcinoma A431 cells (Sigma-Aldrich, #E3641) was used as kinase. As substrate for the kinase reaction the biotinylated peptide biotin-Ahx-[…] (SEQ ID NO 5) (C-terminus in amid form) was used which can be purchased e.g. form the company Biosyntan GmbH (Berlin-Buch, Germany).
For the assay 50 nL of a 100 fold concentrated solution of the test compound in DMSO was pipetted into a black low volume 384 well microtiter plate (Greiner Bio-One, Frickenhausen, Germany), 2 μL of a solution of EGFR in aqueous assay buffer [50 mM Hepes/HCl pH 7.0, 1 mM MgCl2, 5 mM MnCl2, 0.5 mM activated sodium ortho-vanadate, 0.005% (v/v) Tween-20]were added and the mixture was incubated for 15 min at 22° C. to allow pre-binding of the test compounds to the enzyme before the start of the kinase reaction. […] The concentration of EGFR was adjusted depending of the activity of the enzyme lot and was chosen appropriate to have the assay in the linear range, typical concentration were about 3 U/ml. The reaction was stopped by the addition of 5 μl of a solution of HTRF detection reagents (0.1 μM streptavidine-XL665 [Cis Biointernational] and 1 nM PT66-Tb-Cryptate, an terbium-cryptate labelled anti-phospho-tyrosine antibody from Cis Biointernational [instead of the PT66-Tb-cryptate PT66-Eu-Chelate from Perkin Elmer can also be used]) in an aqueous EDTA-solution (80 mM EDTA, 0.2% (w/v) bovine serum albumin in 50 mM HEPES pH 7.5).
The resulting mixture was incubated 1 h at 22° C. to allow the binding of the biotinylated phosphorylated peptide to the streptavidine-XL665 and the PT66-Eu-Chelate. Subsequently the amount of phosphorylated substrate was evaluated by measurement of the resonance energy transfer from the PT66-Tb-Cryptate to the streptavidine-XL665. Therefore, the fluorescence emissions at 620 nm and 665 nm after excitation at 337 nm were measured in a HTRF reader, e.g. a Pherastar (BMG Labtechnologies, Offenburg, Germany) or a Viewlux (Perkin-Elmer). The ratio of the emissions at 665 nm and at […] was taken as the measure for the amount of phosphorylated substrate.

[2] = target: human SOS1 (nucleotide exchange of K-Ras^G12C) (Homo sapiens, UniProt Q07889); assay: Biochemical assay 2: K-Ras^G12C activation assay by hSOS1 at high GTP concentration (HTRF); details: for inhibition at 20 µM: read-out: Assay 2 (KRAS-Activation by SOS high GTP) activity expressed as % inhibition at 20 μM
[3] = E-notation values, unit inferred, 50 μM GTP, read-out: Assay 2 (KRAS-Activation, high GTP) IC50
[4] = values given in μM, read-out: EGFR kinase inhibition IC50
[5] = in μM, read-out: EGFR-assay IC50

Sequence of Epidermal Growth Factor Receptor (EGFR) (P00533 25-1210): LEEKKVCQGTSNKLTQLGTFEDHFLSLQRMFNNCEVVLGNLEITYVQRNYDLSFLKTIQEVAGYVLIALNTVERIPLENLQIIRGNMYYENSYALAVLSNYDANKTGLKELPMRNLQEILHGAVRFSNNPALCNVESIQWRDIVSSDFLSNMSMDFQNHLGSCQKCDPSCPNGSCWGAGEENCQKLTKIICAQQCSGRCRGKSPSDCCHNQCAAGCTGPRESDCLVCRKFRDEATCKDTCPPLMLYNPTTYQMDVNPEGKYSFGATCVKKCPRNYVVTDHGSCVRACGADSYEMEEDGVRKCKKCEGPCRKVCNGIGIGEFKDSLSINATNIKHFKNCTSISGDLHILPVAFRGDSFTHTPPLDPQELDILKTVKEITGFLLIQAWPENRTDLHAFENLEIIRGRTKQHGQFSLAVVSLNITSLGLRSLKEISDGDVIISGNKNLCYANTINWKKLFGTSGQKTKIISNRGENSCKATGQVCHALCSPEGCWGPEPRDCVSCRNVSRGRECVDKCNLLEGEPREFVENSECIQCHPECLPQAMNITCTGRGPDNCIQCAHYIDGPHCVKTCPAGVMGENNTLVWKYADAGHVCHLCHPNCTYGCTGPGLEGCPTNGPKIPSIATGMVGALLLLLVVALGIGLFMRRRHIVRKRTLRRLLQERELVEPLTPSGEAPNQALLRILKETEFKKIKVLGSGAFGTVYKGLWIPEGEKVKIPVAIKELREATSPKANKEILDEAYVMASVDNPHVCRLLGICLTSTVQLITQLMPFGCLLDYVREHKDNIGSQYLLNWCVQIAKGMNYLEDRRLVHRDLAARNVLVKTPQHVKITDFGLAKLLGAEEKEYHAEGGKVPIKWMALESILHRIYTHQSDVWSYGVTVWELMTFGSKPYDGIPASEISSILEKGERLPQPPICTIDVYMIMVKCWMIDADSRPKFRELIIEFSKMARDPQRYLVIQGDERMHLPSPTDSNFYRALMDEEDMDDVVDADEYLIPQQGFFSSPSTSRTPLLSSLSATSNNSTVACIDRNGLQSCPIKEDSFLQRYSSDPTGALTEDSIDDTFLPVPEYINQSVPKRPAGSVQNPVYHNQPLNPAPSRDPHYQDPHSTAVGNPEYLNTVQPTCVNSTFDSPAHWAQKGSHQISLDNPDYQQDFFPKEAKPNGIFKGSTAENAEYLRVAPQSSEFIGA

| SMILES | pIC50 ([1]; read-out: EGFR-assay IC50) | pIC50 [2, 3] | other results |
| --- | --- | --- | --- |
| Cc1nc(NC(C)c2ccc(Br)s2)c2cc(N3CCN(C)CC3)ccc2n1 (stereo not shown) [Example 416, N-[1-(5-bromothiophen-2-yl)ethyl]-2-methyl-6-(4-methylpiperazin-1-yl)quinazolin-4-amine] | < 4.70 | 6.16 |  |
| COc1cc2nc(C)nc(NC(C)c3ccc(-c4cc(Cl)ccc4CNC(=O)OC(C)(C)C)s3)c2cc1OC (stereo not shown) [Example 387, tert-butyl [4-chloro-2-(5-{1-[(6,7-dimethoxy-2-methylquinazolin-4-yl)amino]ethyl}-thiophen-2-yl)benzyl]carbamate] | < 4.70 | 5.78 |  |
| COc1ccc(-c2ccc(C(C)Nc3nc(C)nc4cc(OC)c(OC)cc34)s2)c(CN(C)C)c1 (stereo not shown) [Example 439, N-[1-(5-{2-[(dimethylamino)methyl]-4-methoxyphenyl}thiophen-2-yl)ethyl]-6,7-dimethoxy-2-methylquinazolin-4-amine] | < 4.70 | 6.84 |  |
| COc1cc2nc(C)nc(NC(C)c3ccc(-c4ccccc4C(O)CO)s3)c2cc1OC (stereo not shown) [Example 403] | < 4.70 | 6.26 |  |
| COc1cc2nc(C)nc(NC(C)c3ccc(-c4c(Cl)cccc4CNC(=O)OC(C)(C)C)s3)c2cc1OC (stereo not shown) [Example 408, tert-butyl [3-chloro-2-(5-{1-[(6,7-dimethoxy-2-methylquinazolin-4-yl)amino]ethyl}thiophen-2-yl)benzyl]carbamate] | < 4.70 | 6.25 |  |
| Cc1nc(NC(C)c2ccc(-c3ccccc3CN(C)C)s2)c2cc(N3CCN(Cc4cccnc4)CC3)ccc2n1 (stereo not shown) [Example 426, N-[1-(5-{2-[(dimethylamino)methyl]phenyl}thiophen-2-yl)ethyl]-2-methyl-6-[4-(pyridin-3-ylmethyl)piperazin-1-yl]quinazolin-4-amine] | 5.31 | 7.64 |  |
| COc1cc2nc(C)nc(N[C@H](C)c3cccc(-c4ccnc(O)c4)c3)c2cc1OC [Example 388, 4-(3-{(1R)-1-[(6,7-dimethoxy-2-methylquinazolin-4-yl)amino]ethyl}phenyl)pyridin-2-ol] | < 4.70 | 6.10 |  |
| CNC(=O)Nc1ccc2nc(C)nc(NC(C)c3ccc(-c4ccccc4CN(C)C)s3)c2c1 (stereo not shown) [Example 457, 1-(4-{[1-(5-{2-[(dimethylamino)methyl]phenyl}thiophen-2-yl)ethyl]amino}-2-methylquinazolin-6-yl)-3-methylurea] | < 4.70 | 6.17 |  |
| COc1cc2nc(C)nc(NC(C)c3cccc(OCc4ccccc4)c3)c2cc1OC (stereo not shown) [Example 389, N-{1-[3-(benzyloxy)phenyl]ethyl}-6,7-dimethoxy-2-methylquinazolin-4-amine] | < 4.70 | 4.83 |  |
| COc1cc2nc(C)nc(NC(C)c3ccc(-c4ccccc4CN(C)C)s3)c2cc1OC (single isomer, unassigned) [Example 391, N-[1-(5-{2-[(dimethylamino)methyl]phenyl}thiophen-2-yl)ethyl]-6,7-dimethoxy-2-methylquinazolin-4-amine] | < 4.70 | 7.44 |  |
| Cc1nc(NC(C)c2ccc(-c3ccccc3CN(C)C)s2)c2cc(NCCN3CCOCC3)ccc2n1 (stereo not shown) [Example 433, N4-[1-(5-{2-[(dimethylamino)methyl]phenyl}-2-thienyl)ethyl]-2-methyl-N6-[2-(morpholin-4-yl)ethyl]quinazoline-4,6-diamine] | < 4.70 | 7.15 |  |
| COc1cc2nc(C)nc(NC(C)c3c(C)ccc4[nH]ncc34)c2cc1OC (stereo not shown) [Example 7, 6,7-dimethoxy-2-methyl-N-[1-(5-methyl-1H-indazol-4-yl)ethyl]quinazolin-4-amine] |  |  | IC50 [1, 4]: > 20 µM; inhibition at 20 µM ([2]; high GTP): 18% |
| COc1cc2nc(C)nc(NC(C)c3cc(C)c(-c4ccccc4CN(C)C)s3)c2cc1OC (stereo not shown) [Example 400, N-[1-(5-{2-[(dimethylamino)methyl]phenyl}-4-methyl-2-thienyl)ethyl]-6,7-dimethoxy-2-methylquinazolin-4-amine] | < 4.70 | 7.16 |  |
| COCC(=O)NCc1cc(F)ccc1-c1ccc(C(C)Nc2nc(C)nc3cc(OC)c(OC)cc23)s1 (stereo not shown) [Example 383, N-[2-(5-{1-[(6,7-dimethoxy-2-methylquinazolin-4-yl)amino]ethyl}thiophen-2-yl)-5-fluorobenzyl]-2-methoxyacetamide] |  | 5.44 | IC50 [1, 5]: > 20 µM |
| Cc1nc(NC(C)c2ccc(-c3ccccc3CN(C)C)s2)c2cc(N3CCC(N(C)C)C3)ccc2n1 (stereo not shown) [Example 418, N-[1-(5-{2-[(dimethylamino)methyl]phenyl}thiophen-2-yl)ethyl]-6-[3-(dimethylamino)pyrrolidin-1-yl]-2-methylquinazolin-4-amine] | < 4.70 | 7.40 |  |
| Cc1nc(NC(C)c2ccc(Br)s2)c2cc(N3CCN(Cc4ccccc4)C(=O)C3)ccc2n1 (stereo not shown) [Example 441, 1-benzyl-4-(4-{[1-(5-bromothiophen-2-yl)ethyl]amino}-2-methylquinazolin-6-yl)piperazin-2-one] | < 4.70 | 5.40 |  |
| COc1cc2nc(C)nc(NC(C)c3ccc(-c4ccnc(O)c4)s3)c2cc1OC (stereo not shown) [Example 410, 4-(5-{1-[(6,7-dimethoxy-2-methylquinazolin-4-yl)amino]ethyl}-2-thienyl)pyridin-2-ol] | < 4.70 | 5.55 |  |
| COCCNCc1ccccc1-c1ccc(C(C)Nc2nc(C)nc3cc(OC)c(OC)cc23)s1 (stereo not shown) [Example 369, 6,7-dimethoxy-N-{1-[5-(2-{[(2-methoxyethyl)amino]methyl}phenyl)thiophen-2-yl]ethyl}-2-methylquinazolin-4-amine] |  | 6.82 | IC50 [1, 5]: > 20 µM |
| COc1cc2nc(C)nc(NC(C)c3ccc(-c4ccccc4C(C)(C)N)s3)c2cc1OC (stereo not shown) [Example 455, N-[1-{5-[2-(2-aminopropan-2-yl)phenyl]thiophen-2-yl}ethyl]-6,7-dimethoxy-2-methylquinazolin-4-amine] | < 4.70 | 5.98 |  |
| Cc1nc(NC(C)c2ccc(-c3ccccc3CN(C)C)s2)c2cc(NC(=O)N(C)C)ccc2n1 (stereo not shown) [Example 440, 3-(4-{[1-(5-{2-[(dimethylamino)methyl]phenyl}thiophen-2-yl)ethyl]amino}-2-methylquinazolin-6-yl)-1,1-dimethylurea] | < 4.70 | 6.24 |  |
| COc1ccc(-c2ccc(C(C)Nc3nc(C)nc4cc(OC)c(OC)cc34)s2)c(C)c1 (stereo not shown) [Example 422, 6,7-dimethoxy-N-{1-[5-(4-methoxy-2-methylphenyl)thiophen-2-yl]ethyl}-2-methylquinazolin-4-amine] | < 4.70 | 6.04 |  |
| COc1cc2nc(C)nc(NC(C)c3ccc(-c4ccccc4CN4CCN(C(=O)OC(C)(C)C)CC4)s3)c2cc1OC (stereo not shown) [Example 306, tert-butyl 4-[2-(5-{1-[(6,7-dimethoxy-2-methylquinazolin-4-yl)amino]ethyl}thiophen-2-yl)benzyl]piperazine-1-carboxylate] |  |  | IC50 [1, 4]: > 20 µM; pIC50 ([2]; high GTP, read-out: Assay 2 (KRAS-Activation by SOS high GTP) activity expressed as IC50): 5.38 |
| COc1cc2nc(C)nc(NC(C)c3cc(C)c(-c4cnc5n4CCC5)s3)c2cc1OC (stereo not shown) [Example 381, N-{1-[5-(6,7-dihydro-5H-pyrrolo[1,2-a]imidazol-3-yl)-4-methylthiophen-2-yl]ethyl}-6,7-dimethoxy-2-methylquinazolin-4-amine] |  | 5.72 | IC50 [1, 5]: > 20 µM |
| Cc1nc(NC(C)c2ccc(Br)s2)c2cc(N3CCC(N(C)C)C3)ccc2n1 (stereo not shown) [Example 414, N-[1-(5-bromothiophen-2-yl)ethyl]-6-[3-(dimethylamino)pyrrolidin-1-yl]-2-methylquinazolin-4-amine] | < 4.70 | 5.91 |  |
| COc1cc2nc(C)nc(NC(C)c3ccc(-c4ccccc4CC(N)=O)s3)c2cc1OC (stereo not shown) [Example 394, 2-[2-(5-{1-[(6,7-dimethoxy-2-methylquinazolin-4-yl)amino]ethyl}thiophen-2-yl)phenyl]acetamide] | < 4.70 | 5.79 |  |
| COC(=O)c1cc(-c2ccc(C(C)Nc3nc(C)nc4cc(OC)c(OC)cc34)s2)nn1C (stereo not shown) [Example 237, methyl 3-(5-{1-[(6,7-dimethoxy-2-methylquinazolin-4-yl)amino]ethyl}thiophen-2-yl)-1-methyl-1H-pyrazole-5-carboxylate] |  |  | IC50 [1, 4]: > 20 µM; inhibition at 20 µM ([2]; high GTP): 32% |
